From patent US9540343B2 (Gilead Sciences, Inc., priority 2011, dated 2017)

Tests used:
[1] = in vitro
Experimental: For the antiviral assay, 40 μL of 1× test concentration of 3-fold serially diluted compound in culture medium with 10% FBS was added to each well of a 384-well plate (10 concentrations) in quadruplicate. MT-4 cells were next mixed with HIV-IIIb at an m.o.i of 0.003 for 1 hour, after which time 35 μL of virus/cell mixture (2000 cells) was immediately added to each well containing 40 μL of diluted compound. The plates were then incubated at 37° C. for 5 days. After 5 days of incubation, 25 μl of 2× concentrated CellTiter-Glo™ Reagent (catalog #G7571, Promega Biosciences, Inc., Madison, Wis.) was added to each well containing MT-4 cells. Cell lysis was carried out by incubating at room temperature for 10 min and then chemiluminescence was read.
Test B: Cytotoxicity Assay
Compound cytotoxicity and the corresponding CC50 values was determined using the same protocol as described in the antiviral assay (Test A) except that uninfected cells were used.

[2] = system: HIV-IIIb; experiment: Test A: Antiviral assay in MT4 cells; format: cell-based, HIV-1; details: MT-4 cells infected with HIV-IIIb, 5 days, CellTiter-Glo; for % inhibition at 2 μM: percent inhibition of virus-induced cell killing, from dose response curve at 2 uM drug; for inhibition at 2 µM: Human immunodeficiency virus 1, IIIB, MT4, 120 h, read-out: % inhibition at 2 μM, percent inhibition of virus-induced cell killing, from dose response curve at 2 uM drug
[3] = human, uninfected MT-4 cells, CC50 (nM), same protocol as Test A, CellTiter-Glo

Row | Compound | CC50 at 5 days [1, 3] [nM] | % inhibition at 2 μM [2] [%] | inhibition at 2 µM [2] [%] | CC50 at 5 days ([1]; human, CC50 (nM), uninfected MT-4 cells, same protocol as Test A, CellTiter-Glo) [nM]
1 | O=C(N[C@@H](Cc1cc(F)cc(F)c1)c1ncccc1-c1ccc(Cl)cc1)C(c1c[nH]c2ccc(F)cc12)C(F)(F)F (single isomer, unassigned) [Example 36F] | 7200 | 15 |  | 
2 | NC(=O)c1cc(-c2cccnc2[C@H](Cc2cc(F)cc(F)c2)NC(=O)Cn2nc(C(F)F)c3c2CC2CC32)ccc1F (single isomer, unassigned) [Example 248] | 26500 |  | 88 | 
3 | O=C(Cn1nc(C(F)F)c2c1C1CC1CC2)NC(Cc1cc(F)cc(F)c1)c1ncncc1-c1cnc2[nH]ccc2c1 (single isomer, unassigned) [Example 329] | 14700 | 99 |  | 
4 | CC(C)(CC(=O)N[C@@H](Cc1cc(F)cc(F)c1)c1ncccc1-c1ccc(F)c(C(N)=O)c1)n1ccc(C(F)(F)F)n1 (single isomer, unassigned) [Example 478E] |  |  | 0 | 21500
5 | CC(C)C(C(=O)N[C@@H](Cc1cc(F)cc(F)c1)c1ncccc1-c1ccc(F)c(C(N)=O)c1)n1ccc(C(F)(F)F)n1 (single isomer, unassigned) [Example 479] | 26400 |  | 2 | 
6 | CCC(C(=O)N[C@@H](Cc1cc(F)cc(F)c1)c1ncccc1-c1ccc(F)c(C(N)=O)c1)n1nc(C(F)F)cc1C(F)F (single isomer, unassigned) [Example 483D] | 26200 |  | 19 | 
7 | CCCCC(C(=O)N[C@@H](Cc1cc(F)cc(F)c1)c1ncccc1-c1ccc(F)c(C(N)=O)c1)n1ccc(C(F)(F)F)n1 (single isomer, unassigned) [Example 487C] | 9710 |  | 10 | 
8 | CN(C)C(C(=O)N[C@@H](Cc1cc(F)cc(F)c1)c1ncccc1-c1ccc(F)c(C(N)=O)c1)c1ccc(F)cc1 (single isomer, unassigned) [Example 503] | 40400 | 3 |  | 
9 | NC(=O)c1cc(-c2cccnc2[C@H](Cc2cc(F)cc(F)c2)NC(=O)C(c2ccccc2)C2CCCC2)ccc1F (single isomer, unassigned) [Example 515] | 9460 | 0 |  | 
10 | Cc1cc2ncn(C(CC(F)(F)F)C(=O)N[C@@H](Cc3cc(F)cc(F)c3)c3ncccc3-c3ccc(F)c(C(N)=O)c3)c2cc1C (single isomer, unassigned) [Example 540E] | > 53200 | −4 |  | 
11 | CCC(C(=O)N[C@@H](Cc1cc(F)cc(F)c1)c1ncccc1-c1ccc(F)c(C(N)=O)c1)n1ccnc1C(C)C (single isomer, unassigned) [Example 558B] | > 53200 | 3 |  | 
12 | CCC(C(=O)N[C@@H](Cc1cc(F)cc(F)c1)c1ncccc1-c1ccc(F)c(C(N)=O)c1)n1cc(C(F)(F)F)cn1 (single isomer, unassigned) [Example 565] | 37600 | 0 |  | 
13 | CCC(C(=O)N[C@@H](Cc1cc(F)cc(F)c1)c1ncccc1-c1ccc(F)c(C(N)=O)c1)n1ccc(C(F)(F)F)n1 (single isomer, unassigned) [Example 572B] | 36700 |  | 11 | 
14 | CC(C)CC(C(=O)N[C@@H](Cc1cc(F)cc(F)c1)c1ncccc1-c1ccc(F)c(C(N)=O)c1)n1ccc(C(F)(F)F)n1 (single isomer, unassigned) [Example 581D] | 10600 |  | 6 | 
15 | O=C(Cc1c[nH]c2ccc(O)nc12)N[C@@H](Cc1cc(F)cc(F)c1)c1nccnc1-c1ccc(Cl)cc1 (stereo in doubt) [Example 476, N-(1-(3-(4-chlorophenyl)pyrazin-2-yl)-2-(3,5-difluorophenyl)ethyl)-2-(5-hydroxy-1H-pyrrolo[3,2-b]pyridin-3-yl)acetamide] | 53200 |  | 30 | 
16 | Cc1ccccc1-c1cccnc1C(Cc1ccccc1)NC(=O)Cn1nc(C(F)(F)F)c2c1CCCC2 (stereo not shown) [Example 2, N-(2-phenyl-1-(3-(o-tolyl)pyridin-2-yl)ethyl)-2-(3-(trifluoromethyl)-4,5,6,7-tetrahydro-1H-indazol-1-yl)acetamide] | 14000 |  | 29 | 
17 | Cc1ccccc1-c1cccnc1C(Cc1cc(F)cc(F)c1)NC(=O)Cc1c[nH]c2ccc(O)cc12 (stereo not shown) [Example 3, N-(2-(3,5-difluorophenyl)-1-(3-o-tolylpyridin-2-yl)ethyl)-2-(5-hydroxy-1H-indol-3-yl)acetamide] | 21900 |  | 40 | 
18 | Cc1ccccc1-c1cccnc1C(Cc1cc(F)cc(F)c1)NC(=O)Cn1nc(C(F)(F)F)c2c1CCCC2 (stereo not shown) [Example 4, N-(2-(3,5-difluorophenyl)-1-(3-o-tolylpyridin-2-yl)ethyl)-2-(3-(trifluoromethyl)-4,5,6,7-tetrahydro-1H-indazol-1-yl)acetamide] | 10300 |  | 69 | 
19 | COc1ccc(-c2cccnc2C(Cc2cc(F)cc(F)c2)NC(=O)Cc2c[nH]c3ccc(O)cc23)c(C)c1 (stereo not shown) [Example 5, N-(2-(3,5-difluorophenyl)-1-(3-(4-methoxy-2-methylphenyl)pyridin-2-yl)ethyl)-2-(5-hydroxy-1H-indol-3-yl)acetamide] | 32700 |  | 76 | 
20 | COc1ccc(-c2cccnc2C(Cc2cc(F)cc(F)c2)NC(=O)Cn2nc(C(F)(F)F)c3c2CCCC3)c(C)c1 (stereo not shown) [Example 6, N-(2-(3,5-difluorophenyl)-1-(3-(4-methoxy-2-methylphenyl)pyridin-2-yl)ethyl)-2-(3-(trifluoromethyl)-4,5,6,7-tetrahydro-1H-indazol-1-yl)acetamide] | 11400 |  | 45 | 
21 | COc1cc(C)c(-c2cccnc2C(Cc2cc(F)cc(F)c2)NC(=O)Cc2c[nH]c3ccc(O)cc23)c(C)c1 (stereo not shown) [Example 7, N-(2-(3,5-difluorophenyl)-1-(3-(4-methoxy-2,6-dimethylphenyl)pyridin-2-yl)ethyl)-2-(5-hydroxy-1H-indol-3-yl)acetamide] | 17600 |  | 18 | 
22 | COc1cc(C)c(-c2cccnc2C(Cc2cc(F)cc(F)c2)NC(=O)Cn2nc(C(F)(F)F)c3c2CCCC3)c(C)c1 (stereo not shown) [Example 8, N-(2-(3,5-difluorophenyl)-1-(3-(4-methoxy-2,6-dimethylphenyl)pyridin-2-yl)ethyl)-2-(3-(trifluoromethyl)-4,5,6,7-tetrahydro-1H-indazol-1-yl)acetamide] | 15700 |  | 20 | 
23 | Cc1ccccc1-c1ccnc(C(Cc2ccccc2)NC(=O)Cc2c[nH]c3ccc(O)cc23)n1 (stereo not shown) [Example 9E, 2-(5-hydroxy-1H-indol-3-yl)-N-(2-phenyl-1-(4-o-tolylpyrimidin-2-yl)ethyl)acetamide] | 35900 |  | 0 | 
24 | Cc1ccccc1-c1ccnc(C(Cc2ccccc2)NC(=O)Cn2nc(C(F)(F)F)c3c2CCCC3)n1 (stereo not shown) [Example 10, N-(2-phenyl-1-(4-o-tolylpyrimidin-2-yl)ethyl)-2-(3-(trifluoromethyl)-4,5,6,7-tetrahydro-1H-indazol-1-yl)acetamide] | 13000 |  | 0 | 
25 | NC(=O)c1cc(-c2cccnc2[C@H](Cc2cc(F)cc(F)c2)NC(=O)Cn2nc(C(F)(F)F)c3c2CCCC3)ccc1F [Example 589, (S)-5-(2-(2-(3,5-difluorophenyl)-1-(2-(3-(trifluoromethyl)-4,5,6,7-tetrahydro-1H-indazol-1-yl)acetamido)ethyl)pyridin-3-yl)-2-fluorobenzamide] |  |  | 106 | 
